In patent publication US20220401514A1, “ANTIMICROBIAL, BACTERIOPHAGE-DERIVED POLYPEPTIDES AND THEIR USE AGAINST GRAM-NEGATIVE AND ACID-FAST BACTERIA” (CONTRAFECT CORPORATION, priority 2019, published 2022):
Like-named read-outs stand apart in the source and are kept apart here.

What was measured:
[1] = tested on: Klebsiella pneumoniae; format: cell-based; conditions: for MIC50 / MIC100 / MIC Range: K. pneumoniae isolates (n per peptide in table); for MIC: Klebsiella pneumoniae HM-44, CAA supplemented with human serum
Procedure: Determination of Minimal Inhibitory Concentrations (MIC).
Additional MIC testing was performed for several peptides against the ESKAPE pathogens Escherichia coli, Enterobacter cloacae, Klebsiella pneumoniae, and Acinetobacter baumannii, in CAA supplemented with human serum (Table D).

[2] = tested on: S. maltophilia; experiment: MIC against S. maltophilia isolates; format: cell-based, Stenotrophomonas maltophilia; conditions: S. maltophilia isolates (n per peptide in table)
How it was run: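 MIC in μg/mL for Chp peptides across several S. maltophilia isolates, n denoting the number of isolates tested.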

[3] = tested on: P. aeruginosa strain CFS-1292; experiment: MIC in presence of mouse, rat, rabbit and human serum ([…] each); format: cell-based, Pseudomonas aeruginosa; conditions: P. aeruginosa CFS-1292
Procedure: The activity of several Chp peptides against P. aeruginosa strain CFS-1292 in animal serum was evaluated. […] Rat, mouse, and rabbit serum were all obtained from pooled gender samples.

[4] = tested on: Klebsiella pneumoniae; experiment: microbe, parasite or virus in culture; format: cell-based; conditions: CAA without human serum
[5] = tested on: carbapenem-resistant P. aeruginosa clinical isolate CFS-1292; experiment: MIC by modified CLSI broth microdilution against P. aeruginosa CFS-1292 (CAA, CAA + human serum); format: cell-based, Pseudomonas aeruginosa; conditions: for MIC (μg/mL) against CFS-1292 in 100% CAA (1st run/2nd run): 1st run or single value
[6] = tested on: M. kansasii Hauduroy ATCC 12478; experiment: 45 hr MIC against M. kansasii (NTM), Mueller Hinton broth; format: cell-based, Mycobacterium kansasii
[7] = tested on: P. aeruginosa strain CFS-1292; experiment: MIC in presence of divalent cations (calcium chloride, magnesium sulfate); format: cell-based, Pseudomonas aeruginosa
Procedure: Next, Chp peptides were evaluated in the presence of different divalent cations. […]; (2) in the presence of 2 mM calcium chloride alone; (3) in the presence of 1 mM magnesium sulfate alone; and (4) in the presence of both 2 mM calcium chloride and 1 mM magnesium sulfate. […]

[8] = tested on: Pseudomonas aeruginosa; experiment: microbe, parasite or virus in culture; format: cell-based; conditions: for MIC: CAA without human serum; for MIC50 / MIC100 / MIC Range: P. aeruginosa isolates (n per peptide in table)
[9] = tested on: M. intracellulare; experiment: 45 hr MIC against M. intracellulare (NTM); format: cell-based, Mycobacterium intracellulare; conditions: M. intracellulare (Cuttino and McCabe) Runyon ATCC 13950
[10] = tested on: P. aeruginosa strain CFS-1292; experiment: Checkerboard assay (FICI) with antibiotics, P. aeruginosa; format: cell-based, Pseudomonas aeruginosa; conditions: for FICI: CAA + […] human serum
How it was run: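 Antibiotic diluted 2-fold along one plate axis against Chp peptide; bacteria added at 1×10^5 […] in CAA, optionally with human serum or pulmonary surfactant.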

[11] = tested on: P. aeruginosa strain CFS-1292; experiment: MIC in presence and absence of NaCl (140 mM); format: cell-based, Pseudomonas aeruginosa; conditions: for Fold change in MIC: CAA + 140 mM NaCl versus CAA without added NaCl; for MIC, CAA + 140 mM NaCl / MIC, CAA (no added NaCl): P. aeruginosa CFS-1292
Procedure: Certain Chp peptides were evaluated over a range of physiological NaCl levels and pH values, and were further evaluated for activity in the presence of various divalent cations.

[12] = tested on: Pseudomonas aeruginosa, Escherichia coli, Enterobacter cloacae, Klebsiella pneumoniae, and Acinetobacter baumannii; experiment: MIC against a range of Gram-negative organisms (statements covering several species); format: cell-based; conditions: Tables 40-44 isolates
How it was run: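 Strains are exposed to peptide dilutions in CAA containing human serum, and the minimal inhibitory concentration is recorded.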

[13] = Klebsiella pneumoniae (ATCC 10031, MIC control strain), RSC 814
[14] = Klebsiella pneumoniae (g2-3 HM35K), RSC 1138
[15] = Klebsiella sp. (HM-44; colon, Crohn's disease), RSC 1139
[16] = Klebsiella spp. (HM-223; gut of Crohn's disease patient), RSC 1131
[17] = P. aeruginosa 453 (Human clinical isolate, HSS), RSC 1292
[18] = P. aeruginosa (ATCC 14213, human hip wound), RSC 1111
[19] = P. aeruginosa (ATCC 15152, abscess in middle ear), RSC 1110
[20] = P. aeruginosa (ATCC 15692, infected wound), RSC 489
[21] = P. aeruginosa (ATCC 15692, infected wound), RSC 1115
[22] = P. aeruginosa (ATCC 17646, human liver abscess), RSC 1109
[23] = P. aeruginosa (ATCC 19142, tracheobronchial secretion), RSC 1108
[24] = P. aeruginosa (ATCC 25102, bacteriophage host), RSC 1114
[25] = P. aeruginosa (ATCC 27853, MIC control strain), RSC 815
[26] = P. aeruginosa (ATCC BAA-27, lab strain), RSC 1113
[27] = P. aeruginosa (PAO1, alternate source, HER1018), RSC 490

For “MARRYRLSRRRSRRLFSRTALRMHRRNRLRRIMRGGIRF [Chp4]”, which MIC50 [1] is on record?
Its MIC50 is 1 µg/mL.

And the MIC100 [1]?
Its MIC100 is 1 µg/mL.

And the “MIC Range” value [1]?
The value was 0.5 to 1 µg/mL.

What about the MIC [1] of the same sequence?
Its MIC is 0.25 µg/mL.

And the MIC50 [2]?
The MIC50 was 0.5 µg/mL.

And the MIC100 [2]?
The MIC100 was 2 µg/mL.

What about the “MIC Range” value [2] of the same sequence?
The value was 0.5 to 8 µg/mL.

And the “MIC BALB/C Mouse Serum” value ([3]; BALB/C mouse serum […])?
The value was 32 µg/mL.

And the “MIC CAA” value ([3]; CAA)?
Its value is 0.5 µg/mL.

And the “MIC New Zealand White Rabbit Serum” value ([3]; New Zealand White rabbit serum […])?
The value was 2 µg/mL.

What about the “MIC Sprague Dawley Rat Serum” value ([3]; Sprague Dawley rat serum […]) of the same sequence?
The value was 2 µg/mL.

What about the “MIC Human Serum” value ([3]; human serum […]) of the same sequence?
The value was 0.5 µg/mL.

And the MIC [4, 13]?
Its MIC is 4 µg/mL.

And the MIC [4, 14]?
The MIC was 4 µg/mL.

And the MIC [4, 15]?
Its MIC is 4 µg/mL.

And the MIC [4, 16]?
Its MIC is 4 µg/mL.

And the “MIC (μg/mL) against CFS-1292 in 100% CAA (1st run/2nd run)” value [5]?
Its value is 0.5 µg/mL.

And the “MIC (μg/mL) against CFS-1292 in CAA + […] human serum” value [5]?
Its value is 0.5 µg/mL.

And the “45 hr MIC” value [6]?
Its value is greater than 0.125 µg/mL.

What about the MIC ([7]; CAA media + 1 mM MgSO4) of the same sequence?
The MIC was 0.5 µg/mL.

And the MIC ([7]; CAA media + 2 mM CaCl2)?
The MIC was 1 µg/mL.

And the MIC ([7]; CAA media + + 1 mM MgSO4)?
The MIC was 0.125 µg/mL.

What about the MIC ([7]; CAA media alone) of the same sequence?
Its MIC is 0.5 µg/mL.

And the MIC [8, 17]?
Its MIC is 4 µg/mL.

And the MIC [8, 18]?
The MIC was 4 µg/mL.

And the MIC [8, 19]?
Its MIC is 4 µg/mL.

And the MIC [8, 20]?
The MIC was 4 µg/mL.

And the MIC [8, 21]?
Its MIC is 4 µg/mL.

What about the MIC [8, 22] of the same sequence?
Its MIC is 4 µg/mL.

And the MIC [8, 23]?
The MIC was 4 µg/mL.

And the MIC [8, 24]?
Its MIC is 4 µg/mL.

And the MIC [8, 25]?
The MIC was 4 µg/mL.

What about the MIC [8, 26] of the same sequence?
The MIC was 4 µg/mL.

And the MIC [8, 27]?
The MIC was 4 µg/mL.

What about the MIC50 [8] of the same sequence?
The MIC50 was 1 µg/mL.

And the MIC100 [8]?
The MIC100 was 1 µg/mL.

What about the “MIC Range” value [8] of the same sequence?
Its value is 0.5 to 1 µg/mL.

What about the “45 hr MIC” value [9] of the same sequence?
Its value is 1 µg/mL.

What about the “interaction between the Chp peptide and the antibiotic (FICI values)” value ([10]; P. aeruginosa CFS-1292, range of antibiotics) of the same sequence?
Its value is “either synergy (i.e., ≤0.5) or strongly additive (i.e., >0.5-1)”.

And the FICI ([10]; combination with Amikacin)?
Its FICI is 0.500.

And the FICI ([10]; combination with Azithromycin)?
The FICI was 0.156.

And the FICI ([10]; combination with Aztreonam)?
Its FICI is 0.375.

What about the FICI ([10]; combination with Ciprofloxacin) of the same sequence?
The FICI was 0.375.

And the FICI ([10]; combination with Colistin)?
The FICI was 0.375.

And the FICI ([10]; combination with Fosfomycin)?
The FICI was 0.250.

What about the FICI ([10]; combination with Gentamicin) of the same sequence?
The FICI was 0.250.

And the FICI ([10]; combination with Imipenem)?
Its FICI is 0.375.

And the FICI ([10]; combination with Piperacillin)?
Its FICI is 0.188.

What about the FICI ([10]; combination with Rifampicin) of the same sequence?
Its FICI is 0.750.

What about the FICI ([10]; combination with Tobramycin) of the same sequence?
Its FICI is 0.266.

And the “Fold change in MIC” value [11]?
The value was 1.

And the MIC, CAA + 140 mM NaCl [11]?
Its MIC, CAA + 140 mM NaCl is 0.5 µg/mL.

What about the MIC, CAA (no added NaCl) [11] of the same sequence?
The MIC, CAA (no added NaCl) was 0.5 µg/mL.

And the “activity (good = MIC100 of ≤4) against all of P. aeruginosa, K. pneumoniae, A. baumannii, E. cloacae, and E. coli” value [12]?
Its value is “good activity”.

What does the source list for “MVRRRRLRRRISRRIFRRTVARVGRRRRSFRGGIRF [Chp1]”?
MIC50 [1]: 2 µg/mL; MIC100 [1]: 2 µg/mL; MIC Range [1]: 1 to 4 µg/mL; MIC [1]: 1 µg/mL; MIC50 [2]: 2 µg/mL; MIC100 [2]: 4 µg/mL; MIC Range [2]: 1 to 8 µg/mL; MIC [4, 13]: 16 µg/mL; MIC [4, 14]: 16 µg/mL; MIC [4, 15]: 8 µg/mL; MIC [4, 16]: 8 µg/mL; MIC (μg/mL) against CFS-1292 in 100% CAA (1st run/2nd run) [5]: 1 µg/mL; MIC (μg/mL) against CFS-1292 in CAA + […] human serum [5]: 1 µg/mL; 45 hr MIC [6]: 4 µg/mL; MIC ([7]; CAA media + 1 mM MgSO4): 1 µg/mL; MIC ([7]; CAA media + 2 mM CaCl2): 2 µg/mL; MIC ([7]; CAA media + + 1 mM MgSO4): 1 µg/mL; MIC ([7]; CAA media alone): 1 µg/mL; MIC [8, 17]: 8 µg/mL; MIC [8, 18]: 8 µg/mL; MIC [8, 19]: 4 µg/mL; MIC [8, 20]: 4 µg/mL; MIC [8, 21]: 8 µg/mL; MIC [8, 22]: 8 µg/mL; MIC [8, 23]: 8 µg/mL; MIC [8, 24]: 8 µg/mL; MIC [8, 25]: 8 µg/mL; MIC [8, 26]: 8 µg/mL; MIC [8, 27]: 8 µg/mL; MIC50 [8]: 2 µg/mL; MIC100 [8]: 4 µg/mL; MIC Range [8]: 1 to 4 µg/mL; 45 hr MIC [9]: 4 µg/mL; Fold change in MIC [11]: 1; MIC, CAA + 140 mM NaCl [11]: 1 µg/mL; MIC, CAA (no added NaCl) [11]: 1 µg/mL
